Values quoted from earlier work in patent US20130315934A1, “Methods and Compositions for Assessing and Treating Cancer” (Yale University, priority 2010, published 2013).

Legend:
PAK-4 = PAK-4 (Homo sapiens, UniProt O96013); conditions: PAK family members
[1] = test system: YULOVY melanoma cells possessing the S522I variant; conditions: cell culture, YULOVY melanoma cells (ACK1 S522I variant)
[2] = test system: YUHEF melanoma cells harboring ACK1-S212L; conditions: cell culture
purified ACK1 = purified ACK1 (Homo sapiens, UniProt Q07912); conditions: in vitro, purified enzyme
Chain of purified ACK1 (Q07912 whole entry): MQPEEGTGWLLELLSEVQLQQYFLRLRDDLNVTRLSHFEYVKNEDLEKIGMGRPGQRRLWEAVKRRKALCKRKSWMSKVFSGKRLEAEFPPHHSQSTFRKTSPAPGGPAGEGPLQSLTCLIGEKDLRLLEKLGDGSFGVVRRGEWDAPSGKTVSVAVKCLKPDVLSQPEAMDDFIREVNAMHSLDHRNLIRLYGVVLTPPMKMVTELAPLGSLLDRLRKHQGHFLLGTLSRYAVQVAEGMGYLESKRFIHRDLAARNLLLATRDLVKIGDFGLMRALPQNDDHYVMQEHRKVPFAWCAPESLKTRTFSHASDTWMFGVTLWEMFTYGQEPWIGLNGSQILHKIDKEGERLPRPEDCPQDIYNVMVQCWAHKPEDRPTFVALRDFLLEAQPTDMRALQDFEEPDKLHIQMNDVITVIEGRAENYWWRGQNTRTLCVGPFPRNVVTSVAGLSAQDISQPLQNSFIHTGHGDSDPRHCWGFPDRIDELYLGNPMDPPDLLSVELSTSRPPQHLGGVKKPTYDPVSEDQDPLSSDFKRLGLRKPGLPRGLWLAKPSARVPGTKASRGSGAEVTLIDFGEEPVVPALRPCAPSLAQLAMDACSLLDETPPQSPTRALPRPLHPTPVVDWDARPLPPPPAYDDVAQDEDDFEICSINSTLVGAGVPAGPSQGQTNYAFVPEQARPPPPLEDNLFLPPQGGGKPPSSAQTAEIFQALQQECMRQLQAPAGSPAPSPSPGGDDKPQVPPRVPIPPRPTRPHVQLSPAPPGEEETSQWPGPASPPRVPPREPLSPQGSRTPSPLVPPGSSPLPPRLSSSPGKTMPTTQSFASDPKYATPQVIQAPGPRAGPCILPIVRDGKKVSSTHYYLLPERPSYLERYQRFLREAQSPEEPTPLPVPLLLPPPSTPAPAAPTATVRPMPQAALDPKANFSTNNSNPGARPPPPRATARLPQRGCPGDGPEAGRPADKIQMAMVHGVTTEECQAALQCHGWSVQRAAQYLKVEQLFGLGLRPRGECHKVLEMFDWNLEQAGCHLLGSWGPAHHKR

Chain of PAK-4 (O96013 whole entry): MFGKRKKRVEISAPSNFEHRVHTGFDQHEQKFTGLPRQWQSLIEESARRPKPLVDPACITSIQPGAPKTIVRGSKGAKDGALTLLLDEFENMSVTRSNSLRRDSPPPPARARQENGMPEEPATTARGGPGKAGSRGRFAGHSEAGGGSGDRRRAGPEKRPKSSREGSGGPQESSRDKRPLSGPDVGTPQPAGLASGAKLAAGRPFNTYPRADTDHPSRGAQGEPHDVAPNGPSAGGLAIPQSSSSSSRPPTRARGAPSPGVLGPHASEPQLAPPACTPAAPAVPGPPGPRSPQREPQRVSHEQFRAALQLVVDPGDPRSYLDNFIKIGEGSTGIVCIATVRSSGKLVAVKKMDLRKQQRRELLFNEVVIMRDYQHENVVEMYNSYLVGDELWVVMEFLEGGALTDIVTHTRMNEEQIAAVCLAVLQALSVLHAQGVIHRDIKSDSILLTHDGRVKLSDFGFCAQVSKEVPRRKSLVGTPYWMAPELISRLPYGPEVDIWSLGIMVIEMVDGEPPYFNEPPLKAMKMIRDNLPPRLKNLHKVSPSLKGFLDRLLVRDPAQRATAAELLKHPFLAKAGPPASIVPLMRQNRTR

| PAK family selectivity of inhibition (PAK-4) | SMILES | inhibition of proliferation [1] | inhibition of proliferation [2] | inhibition of purified ACK1 (purified ACK1) |
| --- | --- | --- | --- | --- |
| inhibit only PAK-4 | Cc1nc(Nc2[nH]nc3c2CN(C(=O)N[C@H](CN(C)C)c2ccccc2)C3(C)C)c2sccc2n1 [PF-3758309] | – | – | – |
| – | CCCS(=O)(=O)Nc1ccc(F)c(C(=O)c2c[nH]c3ncc(-c4ccc(Cl)cc4)cc23)c1F [PLX4032] | did not inhibit the proliferation | did not inhibit the proliferation | highly effective in vitro inhibitor |
